Experimental findings from US11285156B2, “Substituted piperazines as KRAS G12C inhibitors” (Amgen Inc., priority 2018, dated 2022) are described below.

Where two headings read alike, the source gives them in different places.

Test [1] relates to Phosphorylation of ERK1/2 in MIA PaCa-2 cells. Kind of test: Phospho-ERK1/2 MSD assay in MIA PaCa-2 cells. The conditions noted are these: read-out: p-ERK IC50 (2 h, MiaPaCa-2; μM), 2 h compound treatment, MIA PaCa-2 cells, EGF stimulated. The format is cell-based. A digest of the protocol:
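Phospho-ERK1/2 measured by MSD electrochemiluminescence kit in RIPA lysates of MIA PaCa-2 cells. Cells were treated with compound titrations for 2 or 4 h at 37 °C, 5% CO2, followed by a 10 min pulse of 10 ng/mL EGF.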

The subject of test [2] is Phosphorylation of ERK1/2 in A549 cells. Kind of test: Phospho-ERK1/2 MSD assay in A549 cells. The format is cell-based. Conditions: read-out: p-ERK IC50 (2 h, A549; μM), 2 h compound treatment, A549 cells, EGF stimulated. A digest of the protocol:
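Dose-response treatment lasted 2 or 4 h in RPMI 1640/10% FBS at 37 °C. EGF-stimulated (10 ng/mL, 10 min) ERK1/2 phosphorylation was then quantified in cell lysates with a Meso Scale Discovery phospho-ERK1/2 assay.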

Test [3] concerns the target GDP-bound KRAS protein (aa 1-169), containing both G12C and C118A amino acid substitutions (Homo sapiens (Human), UniProt P01116, C118A/G12C). Kind of test: Coupled nucleotide exchange assay (SOS-mediated nucleotide exchange, AlphaScreen). The test is classed as biochemical. Conditions: 5 min compound pre-incubation; for IC50: read-out: Coupled exchange IC50 (5 min; μM).

Sequence of GDP-bound KRAS protein (aa 1-169), containing both G12C and C118A amino acid substitutions (P01116 other isoform, or with tags, fused parts or gaps G12C/C118A): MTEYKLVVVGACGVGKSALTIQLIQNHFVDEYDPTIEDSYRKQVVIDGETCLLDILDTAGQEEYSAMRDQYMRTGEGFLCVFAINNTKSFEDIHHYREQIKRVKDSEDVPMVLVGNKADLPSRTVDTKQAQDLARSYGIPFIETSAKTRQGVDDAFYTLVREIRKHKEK

With `C=CC(=O)N1C[C@H](C)N(c2nc(=O)n(-c3c(C)ncnc3C(C)C)c3nc(-c4ccccc4F)c(Cl)cc23)C[C@H]1C` (single isomer, unassigned) [Example 194-1], the IC50 in test [1] (Homo sapiens, MIA PaCa-2, 2 h) is 0.033 µM; in test [2] (Homo sapiens, A549, 2 h), over 7.5 µM. Further, the “Coupled exchange IC50 (5 min; μM)” value in test [3] came out at 0.067 µM.
As to `C=CC(=O)N1C[C@H](C)N(c2nc(=O)n(-c3c(C)nc(N(C)C)nc3C(C)C)c3nc(-c4ccccc4F)c(Cl)cc23)C[C@H]1C` (single isomer, unassigned) [Example 196], the IC50 in test [1] (Homo sapiens, MIA PaCa-2, 2 h) was 0.097 µM; in test [2] (Homo sapiens, A549, 2 h), over 7.5 µM. Besides, in test [3], the “Coupled exchange IC50 (5 min; μM)” value is 0.048 µM.
For the molecule `C=CC(=O)N1C[C@H](C)N(c2nc(=O)n(-c3c(C)nc(Br)nc3C(C)C)c3nc(-c4ccccc4F)c(Cl)cc23)C[C@H]1C` (single isomer, unassigned) [Example 197-2], the IC50 in test [1] (Homo sapiens, MIA PaCa-2, 2 h) was 0.091 µM; in test [2] (Homo sapiens, A549, 2 h), over 7.5 µM. In addition, the “Coupled exchange IC50 (5 min; μM)” value in test [3] worked out at 0.01 µM.
Consider `C=CC(=O)N1C[C@H](C)N(c2nc(=O)n(-c3c(C)nc(C4CC4)nc3C(C)C)c3nc(-c4ccccc4F)c(Cl)cc23)C[C@H]1C` (single isomer, unassigned) [Example 198], for which the IC50 in test [1] (Homo sapiens, MIA PaCa-2, 2 h) is 0.136 µM; in test [2] (Homo sapiens, A549, 2 h), 5.96 µM. Besides, in test [3], the “Coupled exchange IC50 (5 min; μM)” value turned out to be 0.075 µM.
The matching figures for `C=CC(=O)N1C[C@H](C)N(c2nc(=O)n(-c3c(C)nc(CC)nc3C(C)C)c3nc(-c4ccccc4F)c(Cl)cc23)C[C@H]1C` (single isomer, unassigned) [Example 199]: 0.087 µM, over 7.5 µM and 0.132 µM.
`C=CC(=O)N1C[C@H](C)N(c2nc(=O)n(-c3c(C)nc(F)nc3C(C)C)c3nc(-c4ccccc4F)c(Cl)cc23)C[C@H]1C` (single isomer, unassigned) [Example 200]: the IC50 was 0.094 µM in test [1] (Homo sapiens, MIA PaCa-2, 2 h) and over 7.5 µM in test [2] (Homo sapiens, A549, 2 h). In addition, the “Coupled exchange IC50 (5 min; μM)” value in test [3] was 0.03 µM.
Regarding `C=CC(=O)N1C[C@H](C)N(c2nc(=O)n(-c3c(C)nc(C(=C)C)nc3C(C)C)c3nc(-c4ccccc4F)c(Cl)cc23)C[C@H]1C` (single isomer, unassigned) [Example 201], the IC50 in test [1] (Homo sapiens, MIA PaCa-2, 2 h) came to 0.205 µM; in test [2] (Homo sapiens, A549, 2 h) it was 5.05 µM. For the same molecule, in test [3], the “Coupled exchange IC50 (5 min; μM)” value came to 0.075 µM.
Take `C=CC(=O)N1C[C@H](C)N(c2nc(=O)n(-c3c(C)nc(C=C)nc3C(C)C)c3nc(-c4ccccc4F)c(Cl)cc23)C[C@H]1C` (single isomer, unassigned) [Example 202]: the half-inhibitory concentration (IC50) is 0.075 µM in test [1] (Homo sapiens, MIA PaCa-2, 2 h) and over 7.5 µM in test [2] (Homo sapiens, A549, 2 h). For the same molecule, the “Coupled exchange IC50 (5 min; μM)” value in test [3] came to 0.071 µM.
On to `C=CC(=O)N1C[C@H](C)N(c2nc(=O)n(-c3c(C)nc(C(C)C)nc3C(C)C)c3nc(-c4ccccc4F)c(Cl)cc23)C[C@H]1C` (single isomer, unassigned) [Example 203], for which the half-maximal inhibitory concentration (IC50) was 0.243 µM in test [1] (Homo sapiens, MIA PaCa-2, 2 h) and over 7.5 µM in test [2] (Homo sapiens, A549, 2 h). Besides, in test [3], the “Coupled exchange IC50 (5 min; μM)” value came to 0.223 µM.
The matching figures for `C#Cc1nc(C)c(-n2c(=O)nc(N3C[C@@H](C)N(C(=O)C=C)C[C@@H]3C)c3cc(Cl)c(-c4ccccc4F)nc32)c(C(C)C)n1` (single isomer, unassigned) [Example 204]: 0.091 µM, 3.01 µM and 0.066 µM.
For `C=CC(=O)N1C[C@H](C)N(c2nc(=O)n(-c3c(C(C)C)cnnc3C(C)C)c3nc(-c4ccccc4F)c(Cl)cc23)C[C@H]1C` (single isomer, unassigned) [Example 205-1], the IC50 in test [1] (Homo sapiens, MIA PaCa-2, 2 h) is 0.07 µM; in test [2] (Homo sapiens, A549, 2 h), over 7.5 µM. For the same molecule, in test [3], the “Coupled exchange IC50 (5 min; μM)” value turned out to be 0.098 µM.
For `C=CC(=O)N1C[C@H](C)N(c2nc(=O)n(-c3c(C(C)C)cnnc3C(C)C)c3nc(-c4ccccc4F)c(Cl)cc23)C[C@H]1C` (single isomer, unassigned) [Example 205-2], the IC50 is 0.091 µM in test [1] and over 7.5 µM in test [2]. The “Coupled exchange IC50 (5 min; μM)” value in test [3] turned out to be 0.078 µM.
In the case of `C=CC(=O)N1C[C@H](C)N(c2nc(=O)n(-c3c(C(C)C)cccc3S(C)(=O)=O)c3nc(-c4ccccc4F)c(Cl)cc23)C[C@H]1C` (single isomer, unassigned) [Example 208-2], the IC50 in test [1] was 0.106 µM; in test [2] it was over 7.5 µM; in test [3], 0.117 µM.
Regarding `C=CC(=O)N1C[C@H](C)N(c2nc(=O)n(-c3c(C(C)C)cccc3[S+](C)[O-])c3nc(-c4ccccc4F)c(Cl)cc23)C[C@H]1C` (single isomer, unassigned) [Example 209-1], the IC50 in test [1] (Homo sapiens, MIA PaCa-2, 2 h) was 0.116 µM; in test [2] (Homo sapiens, A549, 2 h), over 7.5 µM. In addition, the “Coupled exchange IC50 (5 min; μM)” value in test [3] was determined as 0.088 µM.
Regarding `C=CC(=O)N1C[C@H](C)N(c2nc(=O)n(-c3c(C)cc([S+](C)[O-])cc3C(C)C)c3nc(-c4ccccc4C)c(Cl)cc23)C[C@H]1C` (single isomer, unassigned) [Example 213-2], the IC50 was 0.069 µM in test [1] (Homo sapiens, MIA PaCa-2, 2 h) and over 7.5 µM in test [2] (Homo sapiens, A549, 2 h). Besides, the “Coupled exchange IC50 (5 min; μM)” value in test [3] stood at 0.072 µM.
As for `C=CC(=O)N1C[C@H](C)N(c2nc(=O)n(-c3c(C)cc([S+](C)[O-])cc3C(C)C)c3nc(-c4ccccc4C)c(Cl)cc23)C[C@H]1C` (single isomer, unassigned) [Example 213-3], the figures for the 50% inhibitory concentration (IC50) in test [1] and in test [2] were 0.074 µM and over 7.5 µM, respectively. Further, the “Coupled exchange IC50 (5 min; μM)” value in test [3] came to 0.066 µM.
Consider `C=CC(=O)N1C[C@H](C)N(c2nc(=O)n(-c3c(C)cc(S(C)(=O)=O)cc3C(C)C)c3nc(-c4ccccc4F)c(Cl)cc23)C[C@H]1C` (single isomer, unassigned) [Example 215-2], for which the IC50 in test [1] (Homo sapiens, MIA PaCa-2, 2 h) is 0.086 µM; in test [2] (Homo sapiens, A549, 2 h), over 7.5 µM. Moreover, the “Coupled exchange IC50 (5 min; μM)” value in test [3] came to 0.055 µM.
`C=CC(=O)N1C[C@H](C)N(c2nc(=O)n(-c3c(C)ccnc3C(C)C)c3nc(C4CC4(C)C)c(Cl)cc23)C[C@H]1C` (stereo partly drawn) [93-2]: the IC50 is 0.558 µM in test [1], over 7.5 µM in test [2] and 0.305 µM in test [3].
On to `C=CC(=O)N1C[C@H](C)N(c2nc(=O)n(-c3c(N(C)C)ccnc3C(C)C)c3nc(-c4ccccc4F)c(Cl)cc23)C[C@H]1C` [Example 55-51, 6-Chloro-1-[4-(dimethylamino)-2-isopropyl-3-pyridyl]-4-[(2S,5R)-2,5-dimethyl-4-prop-2-enoyl-piperazin-1-yl]-7-(2-fluorophenyl)pyrido[2,3-d]pyrimidin-2-one], for which the IC50 in test [1] is 0.079 µM; in test [2] (Homo sapiens, A549, 2 h), over 7.5 µM; in test [3], 0.19 µM.
Take `C=CC(=O)N1C[C@H](C)N(c2nc(=O)n(-c3c(Cl)ccnc3C(C)C)c3nc(OC)c(-c4ccccc4F)cc23)C[C@H]1C` [Example 55-52, 1-(4-Chloro-2-isopropyl-3-pyridyl)-4-[(2S,5R)-2,5-dimethyl-4-prop-2-enoyl-piperazin-1-yl]-6-(2-fluorophenyl)-7-methoxy-pyrido[2,3-d]pyrimidin-2-one]: the IC50 in test [1] (Homo sapiens, MIA PaCa-2, 2 h) was 10 µM; in test [2] (Homo sapiens, A549, 2 h) it was over 7.5 µM; in test [3], 10.2 µM.
`C=CC(=O)N1C[C@H](C)N(c2nc(=O)n(C)c3nc(-c4ccccc4F)c(Cl)cc23)C[C@H]1C` [Example 55-59, 6-Chloro-4-[(2S,5R)-2,5-dimethyl-4-prop-2-enoyl-piperazin-1-yl]-7-(2-fluorophenyl)-1-methyl-pyrido[2,3-d]pyrimidin-2-one]: the IC50 was 10 µM in test [1] (Homo sapiens, MIA PaCa-2, 2 h); over 7.5 µM in test [2] (Homo sapiens, A549, 2 h); 174 µM in test [3].
Regarding `C=CC(=O)N1C[C@H](C)N(c2nc(=O)n(C(C)C)c3nc(-c4ccccc4F)c(Cl)cc23)C[C@H]1C` [Example 55-60, 6-Chloro-4-[(2S,5R)-2,5-dimethyl-4-prop-2-enoyl-piperazin-1-yl]-7-(2-fluorophenyl)-1-isopropyl-pyrido[2,3-d]pyrimidin-2-one], the IC50 is 7.77 µM in test [1] (Homo sapiens, MIA PaCa-2, 2 h); over 7.5 µM in test [2] (Homo sapiens, A549, 2 h); 7.85 µM in test [3].
Consider `C=CC(=O)N1C[C@H](C)N(c2nc(=O)n(-c3c(CN4CCCC4)cccc3C(C)C)c3nc(-c4ccccc4F)c(Cl)cc23)C[C@H]1C` [Example 80-10, 6-Chloro-4-[(2S,5R)-2,5-dimethyl-4-prop-2-enoyl-piperazin-1-yl]-7-(2-fluorophenyl)-1-[2-isopropyl-6-(pyrrolidin-1-ylmethyl)phenyl]pyrido[2,3-d]pyrimidin-2-one], for which the IC50 in test [1] (Homo sapiens, MIA PaCa-2, 2 h) is 0.063 µM; in test [2] (Homo sapiens, A549, 2 h), over 7.5 µM; in test [3], 0.077 µM.
Turning to `C=CC(=O)N1C[C@H](C)N(c2nc(=O)n(-c3c(CN4CC(F)(F)C4)cccc3C(C)C)c3nc(-c4ccccc4F)c(Cl)cc23)C[C@H]1C` [Example 80-11, 6-chloro-1-[2-[(3,3-difluoroazetidin-1-yl)methyl]-6-isopropyl-phenyl]-4-[(2S,5R)-2,5-dimethyl-4-prop-2-enoyl-piperazin-1-yl]-7-(2-fluorophenyl)pyrido[2,3-d]pyrimidin-2-one], the IC50 was 0.222 µM in test [1] (Homo sapiens, MIA PaCa-2, 2 h); over 7.5 µM in test [2] (Homo sapiens, A549, 2 h); 0.078 µM in test [3].

The term IC50 denotes the concentration that inhibits the measured activity by half.
